# Patent publication US20050009840A1 (SUGEN, INC., priority 2003, published 2005)
# Molecular target: T1, Met kinase domain (GST fusion protein) (Homo sapiens, UniProt P08581)
# T1 construct: Purified GST fusion protein containing the Met kinase domain
# Test: Met transphosphorylation assay (ELISA, poly(glu-tyr) substrate);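 note: Cell-free ELISA with plate-bound poly(Glu:Tyr 4:1) phosphorylated by GST-fused Met kinase domain plus ATP and Mn2+, phosphotyrosine detected by anti-phosphotyrosine antibody with HRP and ABTS read-out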
# Type: biochemical
# Conditions: read-out: Met IC50
# T1 sequence (P08581 1078-1345 limits assumed): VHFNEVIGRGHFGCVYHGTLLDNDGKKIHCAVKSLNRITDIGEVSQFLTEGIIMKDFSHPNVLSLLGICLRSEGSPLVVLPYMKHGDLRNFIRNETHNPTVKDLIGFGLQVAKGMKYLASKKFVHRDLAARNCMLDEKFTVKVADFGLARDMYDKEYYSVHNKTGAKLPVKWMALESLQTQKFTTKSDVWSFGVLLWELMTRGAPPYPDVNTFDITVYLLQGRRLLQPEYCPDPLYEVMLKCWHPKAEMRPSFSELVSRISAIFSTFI
row,SMILES,IC50
1,"CC(Oc1nc(-c2cccc(C(=O)N3C[C@@H](C)N[C@@H](C)C3)c2)cnc1N)c1c(Cl)ccc(F)c1Cl (stereo partly drawn) [II-131, (3-{5-Amino-6-[1-(2,6-dichloro-3-fluoro-phenyl)-ethoxy]-pyrazin-2-yl}-phenyl)-((3R,5S)-3,5-dimethyl-piperazin-1-yl)-methanone]",120 nM
2,"CC(Oc1nc(-c2cccc(C(=O)NC3CCN(C)CC3)c2)cnc1N)c1c(Cl)ccc(F)c1Cl (stereo not drawn) [II-132, 3-{5-Amino-6-[1-(2,6-dichloro-3-fluoro-phenyl)-ethoxy]-pyrazin-2-yl}-N-(1-methyl-piperidin-4-yl)-benzamide]",130 nM
3,"CC(Oc1nc(-c2cccc(C(=O)NCCN3CCCC3)c2)cnc1N)c1c(Cl)ccc(F)c1Cl (stereo not drawn) [II-133, 3-{5-Amino-6-[1-(2,6-dichloro-3-fluoro-phenyl)-ethoxy]-pyrazin-2-yl}-N-(2-pyrrolidin-1-yl-ethyl)-benzamide]",170 nM
4,"CC(Oc1nc(-c2cccc(C(=O)NCCN3CCOCC3)c2)cnc1N)c1c(Cl)ccc(F)c1Cl (stereo not drawn) [II-134, 3-{5-Amino-6-[1-(2,6-dichloro-3-fluoro-phenyl)-ethoxy]-pyrazin-2-yl}-N-(2-morpholin-4-yl-ethyl)-benzamide]",210 nM
5,"CC(Oc1nc(-c2cccc(C(=O)NCCCN3CCOCC3)c2)cnc1N)c1c(Cl)ccc(F)c1Cl (stereo not drawn) [II-135, 3-{5-Amino-6-[1-(2,6-dichloro-3-fluoro-phenyl)-ethoxy]-pyrazin-2-yl}-N-(3-morpholin-4-yl-propyl)-benzamide]",260 nM
6,"CC(Oc1nc(-c2cccc(C(=O)N3CCC(NC4CC4)CC3)c2)cnc1N)c1c(Cl)ccc(F)c1Cl (stereo not drawn) [II-136, (3-{5-Amino-6-[1-(2,6-dichloro-3-fluoro-phenyl)-ethoxy]-pyrazin-2-yl}-phenyl)-(4-cyclopropylamino-piperidin-1-yl)-methanone]",150 nM
7,"CC(Oc1nc(-c2cccc(C(=O)NC[C@H](O)CN3CCOCC3)c2)cnc1N)c1c(Cl)ccc(F)c1Cl (stereo partly drawn) [II-137, 3-{5-Amino-6-[1-(2,6-dichloro-3-fluoro-phenyl)-ethoxy]-pyrazin-2-yl}-N-((S)-2-hydroxy-3-morpholin-4-yl-propyl)-benzamide]",300 nM
8,"CC(Oc1nc(-c2cccc(C(=O)NC[C@@H](O)CN3CCCC3)c2)cnc1N)c1c(Cl)ccc(F)c1Cl (stereo partly drawn) [II-138, 3-{5-Amino-6-[1-(2,6-dichloro-3-fluoro-phenyl)-ethoxy]-pyrazin-2-yl}-N-((R)-2-hydroxy-3-pyrrolidin-1-yl-propyl)-benzamide]",130 nM
9,"CC(Oc1cc(-c2cccc(C(=O)N3CCC(N4CCCC4)CC3)c2)cnc1N)c1c(Cl)ccc(F)c1Cl (stereo not drawn) [II-139, (3-{6-Amino-5-[1-(2,6-dichloro-3-fluoro-phenyl)-ethoxy]-pyridin-3-yl}-phenyl)-(4-pyrrolidin-1-yl-piperidin-1-yl)-methanone]",71 nM
10,"CCN(CC)CCS(=O)(=O)Nc1ccc(-c2cnc(N)c(OC(C)c3c(Cl)ccc(F)c3Cl)n2)cc1 (stereo not drawn) [II-140, 2-Diethylamino-ethanesulfonic acid (4-{5-amino-6-[1-(2,6-dichloro-3-fluoro-phenyl)-ethoxy]-pyrazin-2-yl}-phenyl)-amide]",350 nM
11,"CC(Oc1nc(-c2ccc(NS(=O)(=O)CCN3CCC(O)CC3)cc2)cnc1N)c1c(Cl)ccc(F)c1Cl (stereo not drawn) [II-141, 2-(4-Hydroxy-piperidin-1-yl)-ethanesulfonic acid (4-{5-amino-6-[1-(2,6-dichloro-3-fluoro-phenyl)-ethoxy]-pyrazin-2-yl}-phenyl)-amide]",210 nM
12,"CC(Oc1nc(-c2ccc(NS(=O)(=O)CCN(C)C)cc2)cnc1N)c1c(Cl)ccc(F)c1Cl (stereo not drawn) [II-142, 2-Dimethylamino-ethanesulfonic acid (4-{5-amino-6-[1-(2,6-dichloro-3-fluoro-phenyl)-ethoxy]-pyrazin-2-yl}-phenyl)-amide]",220 nM

# Now from value to compound:
row,IC50,SMILES
1,190 nM,"CC(Oc1nc(-c2ccc(NS(=O)(=O)CCN3CC[C@@H](O)C3)cc2)cnc1N)c1c(Cl)ccc(F)c1Cl (stereo partly drawn) [II-143, 2-((R)-3-Hydroxy-pyrrolidin-1-yl)-ethanesulfonic acid (4-{5-amino-6-[1-(2,6-dichloro-3-fluoro-phenyl)-ethoxy]-pyrazin-2-yl}-phenyl)-amide]"
2,360 nM,"CC(Oc1nc(-c2ccc(NS(=O)(=O)CCN3CCCC3)cc2)cnc1N)c1c(Cl)ccc(F)c1Cl (stereo not drawn) [II-144, 2-Pyrrolidin-1-ylethanesulfonic acid (4-{5-amino-6-[1-(2,6-dichloro-3-fluoro-phenyl)-ethoxy]-pyrazin-2-yl}-phenyl)-amide]"
3,1560 nM,"CC(Oc1nc(-c2ccc(C(=O)O)cc2)cnc1N)c1c(Cl)ccc(F)c1Cl (stereo not drawn) [II-145, 4-{5-Amino-6-[1-(2,6-dichloro-3-fluoro-phenyl)-ethoxy)-pyrazin-2-yl)benzoic acid]"
4,150 nM,"CC(Oc1nc(-c2ccc(C(=O)NC[C@@H](O)CN3CCCC3)cc2)cnc1N)c1c(Cl)ccc(F)c1Cl (stereo partly drawn) [II-146, 4-{5-Amino-6-[1-(2,6-dichloro-3-fluoro-phenyl)-ethoxy]-pyrazin-2-yl}-N-((R)-2-hydroxy-3-pyrrolidin-1-yl-propyl)-benzamide]"
5,130 nM,"CC(Oc1nc(-c2ccc(C(=O)N3CCC(NC4CC4)CC3)cc2)cnc1N)c1c(Cl)ccc(F)c1Cl (stereo not drawn) [II-147, (4-{5-Amino-6-[1-(2,6-dichloro-3-fluoro-phenyl)-ethoxy]-pyrazin-2-yl}-phenyl)-(4-cyclopropylamino-piperidin-1-yl)-methanone]"
6,120 nM,CC(Oc1nc(-c2ccc(C(=O)NC[C@H](O)CN3CCCC3)cc2)cnc1N)c1c(Cl)ccc(F)c1Cl (stereo partly drawn) [II-148]
7,130 nM,"CC(Oc1nc(-c2ccc(C(=O)NC[C@@H](O)CN3CCOCC3)cc2)cnc1N)c1c(Cl)ccc(F)c1Cl (stereo partly drawn) [II-149, 4-{5-Amino-6-[1-(2,6-dichloro-3-fluoro-phenyl)-ethoxy]-pyrazin-2-yl}-N-((R)-2-hydroxy-3-morpholin-4-yl-propyl)-benzamide]"
8,68 nM,"CC(Oc1nc(-c2ccc(C(=O)NC3CCN(C)CC3)cc2)cnc1N)c1c(Cl)ccc(F)c1Cl (stereo not drawn) [II-150, 4-{5-Amino-6-[1-(2,6-dichloro-3-fluoro-phenyl)-ethoxy]-pyrazin-2-yl}-N-(1-methyl-piperidin-4-yl)-benzamide]"
9,180 nM,"CC(Oc1nc(-c2ccc(C(=O)N3CCC[C@H]3CN3CCCC3)cc2)cnc1N)c1c(Cl)ccc(F)c1Cl (stereo partly drawn) [II-151, (4-{5-Amino-6-[1-(2,6-dichloro-3-fluoro-phenyl)-ethoxy]-pyrazin-2-yl}-phenyl)-((S)-2-pyrrolidin-1-ylmethyl-pyrrolidin-1-yl)-methanone]"
10,110 nM,"CC(Oc1nc(-c2ccc(C(=O)N3CCC(N4CCCC4)CC3)cc2)cnc1N)c1c(Cl)ccc(F)c1Cl (stereo not drawn) [II-152, (4-{5-Amino-6-[1-(2,6-dichloro-3-fluoro-phenyl)-ethoxy]-pyrazin-2-yl}-phenyl)-(4-pyrrolidin-1-yl-piperidin-1-yl)-methanone]"
11,102 nM,"CC(Oc1nc(-c2ccc(C(=O)NCCN3CCOCC3)cc2)cnc1N)c1c(Cl)ccc(F)c1Cl (stereo not drawn) [II-153, 4-{5-Amino-6-[1-(2,6-dichloro-3-fluoro-phenyl)-ethoxy]-pyrazin-2-yl}-N-(2-morpholin-4-yl-ethyl)-benzamide]"
12,160 nM,"CC(Oc1nc(-c2ccc(C(=O)N3CCN(C)CC3)cc2)cnc1N)c1c(Cl)ccc(F)c1Cl (stereo not drawn) [II-154, (4-{5-Amino-6-[1-(2,6-dichloro-3-fluoro-phenyl)-ethoxy]-pyrazin-2-yl}-phenyl)-(4-methyl-piperazin-1-yl)-methanone]"
